Measurements reported in patent US11401255B2, “Small molecule activators of Parkin enzyme function” (Mayo Foundation for Medical Education and Research, priority 2016, dated 2022).
Where two headings read alike, the source gives them in different places.

Key:
[1] = test system: wp2[pKM101]+wp2 uvrA mixed 1:2; test: Ames Test, E. coli
Text: (§1) The test used amino acid-dependent strains of Salmonella typhimurium and Escherichia coli to detect point mutations which involved substitution, addition or deletion of one or a few DNA base pairs. Point mutations were introduced in the histidine (Salmonella typhimurium) or the tryptophan (Escherichia coli) operon, making the tester strains incapable of producing these amino acids. The test detected mutations that revert the mutations present in the bacteria, restoring the functional capability to synthesize histidine or tryptophan. The revertant bacteria were detected by the ability to grow in the absence of the amino acid required by the parent test strain. A mutagenic potential of a tested compound was assessed by exposing these bacterial strains to different concentrations of the compounds and estimating number of revertant colonies grown in the absence (trace quantities) of the amino acid.
(§2) DMSO was used as the negative control.
(§3) For each experiment, tester strain cultures were grown overnight in Oxoid nutrient broth #2 at 37° C. with shaking at 235 rpm to a density of 1-2×10^9 colony forming units/mL (OD540˜2).
(§4) The tester strain (10 μL of night culture) was mixed with the test agent (10 µL of the DMSO stock) and GM liquid medium (30 μL). The obtained mixture was incubated at room temperature for 5 min in a sterile 1.5 mL tube. Then, to the tube was added 200 μL of molten top agar stored at 44° C. to prevent solidifying. After mixing with a pipette, the mixture was poured onto the surface of a GM agar plate (2.0 mL of GM agar per plate). After solidifying the top agar, the plate was inverted and incubated at 37° C. for 48 hours. Then, results were expressed as number of revertant colonies per plate.

hERG channel = hERG channel (Homo sapiens (Human), UniProt Q12809)
Chain of hERG channel (Q12809 whole entry): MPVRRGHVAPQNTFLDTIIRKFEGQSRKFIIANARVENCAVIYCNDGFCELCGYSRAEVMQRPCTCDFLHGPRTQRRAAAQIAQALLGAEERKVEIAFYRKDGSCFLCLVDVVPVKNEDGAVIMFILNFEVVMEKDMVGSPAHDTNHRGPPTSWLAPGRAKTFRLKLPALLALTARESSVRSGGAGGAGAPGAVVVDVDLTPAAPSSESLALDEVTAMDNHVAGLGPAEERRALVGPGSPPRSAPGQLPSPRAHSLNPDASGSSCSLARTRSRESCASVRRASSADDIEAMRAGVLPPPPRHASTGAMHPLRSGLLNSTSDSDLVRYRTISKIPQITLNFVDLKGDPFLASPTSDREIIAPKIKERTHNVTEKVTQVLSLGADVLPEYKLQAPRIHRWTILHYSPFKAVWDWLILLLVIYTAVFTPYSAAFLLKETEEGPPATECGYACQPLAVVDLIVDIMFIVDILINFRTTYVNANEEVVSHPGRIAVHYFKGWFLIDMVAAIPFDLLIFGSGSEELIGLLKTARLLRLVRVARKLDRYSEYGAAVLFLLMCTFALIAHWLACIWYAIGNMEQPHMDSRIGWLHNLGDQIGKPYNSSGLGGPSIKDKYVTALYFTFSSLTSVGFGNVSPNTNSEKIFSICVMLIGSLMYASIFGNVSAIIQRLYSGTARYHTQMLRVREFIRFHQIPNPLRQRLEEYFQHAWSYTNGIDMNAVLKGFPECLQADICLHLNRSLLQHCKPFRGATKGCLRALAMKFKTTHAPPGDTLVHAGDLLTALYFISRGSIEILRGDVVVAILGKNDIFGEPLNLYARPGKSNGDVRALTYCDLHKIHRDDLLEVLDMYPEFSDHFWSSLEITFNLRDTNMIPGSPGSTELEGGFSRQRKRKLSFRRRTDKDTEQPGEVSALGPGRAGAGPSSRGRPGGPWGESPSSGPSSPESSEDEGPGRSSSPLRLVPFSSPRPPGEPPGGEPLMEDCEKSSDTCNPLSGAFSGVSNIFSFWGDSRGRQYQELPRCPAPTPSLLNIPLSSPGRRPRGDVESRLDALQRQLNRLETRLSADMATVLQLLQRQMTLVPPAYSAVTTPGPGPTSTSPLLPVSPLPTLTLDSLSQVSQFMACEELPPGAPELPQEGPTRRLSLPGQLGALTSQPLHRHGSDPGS
Text: Fluorescence polarization (FP) readout technology is based on the observation that when a small fluorescent molecule (the tracer) is excited by the polarized light, the emitted light is largely depolarized because of the rapid rotation of the molecule in the solution during its fluorescence lifetime. The hERG predictor assay provides valuable information about the possible binding of test compounds to the potassium channel and potential QT prolongation on […].
All experiments were performed using the Predictor™ hERG Fluorescence Polarization Assay in accordance with the manufacturer's protocol PV5365 (Invitrogen, Carlsbad, Calif.).
The hERG reaction was performed by incubating the tracer and membranes with hERG channel for 2-4 hours in the solution. The fluorescence polarization was maximal when nothing interfered with the reaction of the tracer and hERG membranes (minimal tracer rotation). But when a tested compound competed with the tracer for the hERG channel, the polarization of emitted light lowered due to the ability of free unbound tracer to rotate rapidly in the solution.
All test points for the compounds were performed in quadruplicates. Three dilutions of the tested compounds were assessed—1 μM, 5 μM and 20 μM.

HeLa cells = test: Mitochondrial membrane potential (JC-10 assay); format: cell-based, human; conditions: 5 μM, compared to DMSO control
Protocol: In order to exclude compounds that diminish the mitochondrial membrane potential, a JC-10 assay was used. HeLa cells were plated in 384-well plates and treated with different doses of CCCP or with 5 μM of Compounds 1, 2, 3, 4, and 31 as indicated for 2 h. The JC-10 dye was added to the live cells and cells are stained for 45 minutes. The plates were then measured with a fluorescent plate reader. JC-10 is a mitochondrial dye that emits red fluorescence in the presence of mitochondrial membrane potential. The fluorescence will change to green in the absence of mitochondrial membrane potential. […] Shown are average values of 3 independent experiments. Statistical analysis was performed by one-way ANOVA with Tukey's post-hoc test. ***, p<0.0005.
Mitochondrial depolarization was assessed using a JC10 assay kit (Sigma, MAK159). HeLa Parkin cells were seeded with […] in 20 μL volume into 384-well plates with clear bottom. The following day 5 μL of CCCP or compounds were added as 5× solutions. Equal volume of DMSO served as a negative control. Cells were incubated for 4 h before 12.5 μL of JC10 dye diluted in buffer A was added to the wells. One hour later the reaction was stopped with 12.5 μL of buffer B and the plate was measured immediately on a Spectramax M5 plate reader (Molecular devices) with bottom read using dual fluorescence (green: Ex 485 nm, Em 538 nm, cut-off at 515 nm; red: Ex 544 nm, Em 590 nm, cut-off at 570 nm). Mitochondrial depolarization was assessed by building the green to red ratio.

TA 1537 = test: Ames Test, strain TA 1537
Text: as §1, §2, §3, §4

[2] = 50 μM (row printed 100; conc. column shifted)
[3] = 100 μM (row printed 200; conc. column shifted)
[4] = 200 μM (row printed 0; conc. column shifted)
[5] = TA 1537, 50 μM (row printed 100; conc. column shifted)
[6] = TA 1537, 100 μM (row printed 200; conc. column shifted)
[7] = TA 1537, 200 μM (row printed 300; conc. column shifted)

SMILES | Fold increase (over baseline) [1, 2] | Mean ± SD [1, 2] | Fold increase (over baseline) [1, 3] | Mean ± SD [1, 3] | Fold increase (over baseline) [1, 4] | Mean ± SD [1, 4] | Binding values, % Mean (hERG channel; 1 μM) | Binding values, % Mean (hERG channel; 5 μM) | Binding values, % Mean (hERG channel; 20 μM) | effect on JC-10 (mitochondrial depolarization) (HeLa cells) | Fold increase (over baseline) (TA 1537; [5]) | Mean ± SD (TA 1537; [5]) | Fold increase (over baseline) (TA 1537; [6]) | Mean ± SD (TA 1537; [6]) | Fold increase (over baseline) (TA 1537; [7]) | mutagenic activity ([1]; 200 μM)
CC(C)c1nccn1CC(=O)Nc1ccc(-c2ccccc2)cc1 [Compound 2] | 0.63 | 2.5 ± 2.12 revertant colonies per plate | 0.38 | 1.5 ± 0.7 revertant colonies per plate | 0.5 | 2 ± 2.82 revertant colonies per plate | 47% | 74% | 91% | did not show an effect | 0.68 | 1.5 ± 2.12 revertant colonies per plate | 0.45 | 1 ± 0 revertant colonies per plate | 0.23 | 
Cc1nc2c(c(N3CCCN(Cc4ccccc4)CC3)n1)CCCC2 [Compound 31] | 1.13 | 4.5 ± 3.53 revertant colonies per plate | 0.38 | 1.5 ± 0.7 revertant colonies per plate | 0 | 0 ± 0 revertant colonies per plate | 45% | 73% | 88% | significantly increased depolarization of mitochondria | 0.45 | 1 ± 1.41 revertant colonies per plate | 0 | 0 ± 0 revertant colonies per plate | 0.23 | 
CC(C)(C)Sc1ccc(NC(=O)Cn2ccnc2)cc1 [Compound 3] | 1 | 4 ± 0 revertant colonies per plate | 1.75 | 7 ± 0 revertant colonies per plate | >75 | >300 revertant colonies per plate | 41% | 115% | 99% | did not show an effect | 0.45 | 1 ± 1.41 revertant colonies per plate | 0.23 | 0.5 ± 0.7 revertant colonies per plate | 5.68 | mutagenic activity
O=C(Cn1ccnc1-c1ccccn1)Nc1ccc(-c2ccccc2)cc1 [Compound 4] | 0.75 | 3 ± 1.41 revertant colonies per plate | 0.38 | 1.5 ± 0.7 revertant colonies per plate | 1.38 | 5.5 ± 2.12 revertant colonies per plate | 26% | 27% | 22% | did not show an effect | 0.23 | 0.5 ± 0.7 revertant colonies per plate | 0 | 0 ± 0 revertant colonies per plate | 0.23 | 
O=C(Cn1cnc2c1CCCC2)Nc1ccc(-c2ccccc2)cc1 [Compound 1] | 0 | 0 ± 0 revertant colonies per plate | 0 | 0 ± 0 revertant colonies per plate | 0 | 0 ± 0 revertant colonies per plate | 83% | 99% | 103% | did not show an effect | 0.23 | 0.5 ± 0.7 revertant colonies per plate | 0.45 | 1 ± 1.41 revertant colonies per plate | 0.45 | 
